Each molecule was assayed against T1, PI3K alpha (Homo sapiens, UniProt P42336) (assay: P110 Alpha TR-FRET Assay (PI3K alpha kinase assay, HTRF Transcreener ADP Assay)). Details: PI3K (WT).
T1 construct: purchased Millipore Upstate
Assay type: biochemical
Method: PI3K alpha kinase assay may be done using HTRF Transcreener ADP Assay (Cisbio).
Composition of the reaction buffer was as follows 50 mM HEPES, pH 7.5, 5 mM MgCl2, 1 mM DTT, 30 μM Na3VO4. PI3 Kinase was procured from Millipore Upstate. […] ATP was used at final concentration of 10 μM. Corning 384 well white plates were used for the assay.
2 μl of diluted enzyme (50 ng), 3 μl of diluted compound and 5 μl of buffer were added, mixed then incubated for 20 minutes with shaking at 400 rpm. 3 μl of substrate (10 μM of ATP and 5 μM PIP2) were added to initiate the reaction. The samples were incubated for 20 min. At the end of the reaction time 10 μl of the Detection mix (5 μl of ADP-D2 and 5 μl of Anti-ADP-Cryptate) was added and the contents were incubated for 1 h. The reaction plate was directly read in an Envision Multilabel Plate Reader.

T1 sequence (P42336 whole entry): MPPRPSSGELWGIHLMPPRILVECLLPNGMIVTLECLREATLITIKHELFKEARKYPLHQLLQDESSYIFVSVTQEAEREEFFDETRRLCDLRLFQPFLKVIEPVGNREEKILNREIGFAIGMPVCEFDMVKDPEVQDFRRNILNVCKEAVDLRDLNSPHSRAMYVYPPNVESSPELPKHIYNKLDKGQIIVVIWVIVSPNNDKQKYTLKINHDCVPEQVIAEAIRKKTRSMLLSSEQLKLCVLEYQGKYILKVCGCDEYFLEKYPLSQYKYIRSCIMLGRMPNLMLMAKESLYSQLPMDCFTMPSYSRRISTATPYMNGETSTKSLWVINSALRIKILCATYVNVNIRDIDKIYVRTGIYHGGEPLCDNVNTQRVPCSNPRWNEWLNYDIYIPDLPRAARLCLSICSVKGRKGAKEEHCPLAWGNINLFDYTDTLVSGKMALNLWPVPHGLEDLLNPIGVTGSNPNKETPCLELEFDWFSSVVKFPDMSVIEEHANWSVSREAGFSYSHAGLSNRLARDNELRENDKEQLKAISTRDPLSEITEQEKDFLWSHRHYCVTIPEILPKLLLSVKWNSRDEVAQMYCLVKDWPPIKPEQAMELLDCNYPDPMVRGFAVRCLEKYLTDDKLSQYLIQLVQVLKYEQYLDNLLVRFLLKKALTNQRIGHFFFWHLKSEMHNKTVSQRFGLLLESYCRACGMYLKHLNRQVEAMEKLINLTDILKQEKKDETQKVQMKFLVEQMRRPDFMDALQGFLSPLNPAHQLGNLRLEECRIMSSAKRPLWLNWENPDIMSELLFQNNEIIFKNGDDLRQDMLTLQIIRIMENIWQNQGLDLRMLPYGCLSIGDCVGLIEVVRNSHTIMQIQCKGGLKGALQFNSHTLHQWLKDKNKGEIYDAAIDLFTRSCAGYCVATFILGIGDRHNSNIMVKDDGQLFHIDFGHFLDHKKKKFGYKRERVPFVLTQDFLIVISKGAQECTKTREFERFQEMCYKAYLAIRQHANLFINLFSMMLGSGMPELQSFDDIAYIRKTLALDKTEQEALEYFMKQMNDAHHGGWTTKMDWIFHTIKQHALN
T1 sequence (P27986 whole entry partner): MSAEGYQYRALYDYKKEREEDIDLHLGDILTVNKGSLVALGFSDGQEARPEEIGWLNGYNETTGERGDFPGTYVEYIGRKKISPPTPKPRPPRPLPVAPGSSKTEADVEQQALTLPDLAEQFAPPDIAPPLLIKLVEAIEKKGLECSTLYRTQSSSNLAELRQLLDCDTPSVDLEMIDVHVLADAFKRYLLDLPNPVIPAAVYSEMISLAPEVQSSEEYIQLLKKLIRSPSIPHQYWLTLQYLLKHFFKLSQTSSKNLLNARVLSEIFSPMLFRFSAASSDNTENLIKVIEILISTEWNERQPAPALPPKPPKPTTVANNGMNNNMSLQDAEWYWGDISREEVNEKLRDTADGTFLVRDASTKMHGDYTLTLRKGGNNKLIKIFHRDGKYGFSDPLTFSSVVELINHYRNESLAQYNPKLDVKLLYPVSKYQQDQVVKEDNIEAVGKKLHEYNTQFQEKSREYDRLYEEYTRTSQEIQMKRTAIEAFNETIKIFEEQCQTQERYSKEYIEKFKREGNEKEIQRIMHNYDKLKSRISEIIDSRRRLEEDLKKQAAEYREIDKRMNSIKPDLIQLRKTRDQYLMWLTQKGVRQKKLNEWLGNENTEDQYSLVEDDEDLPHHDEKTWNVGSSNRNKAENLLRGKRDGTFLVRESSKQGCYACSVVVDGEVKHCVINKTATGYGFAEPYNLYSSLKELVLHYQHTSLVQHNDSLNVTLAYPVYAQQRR

IC50	Structure (SMILES)
> 5 µM	Cc1cc(N)ncc1-c1nc(Oc2ccc(C(=O)N(C)C)cc2)nc(N2CCOCC2)n1 [Compound 1022, 4-14-{[4-1-(6-17-amino-4-15-methylpyridin-3-yl)-6-5-(morpholin-4-yl)-1,3,5-triazin-2-yl]ioxy}-N,N-dimethylbenzamide]
< 5 µM	CN(C)C(=O)c1ccc(Oc2nc(-c3ccc(N)cc3)nc(N3CCOCC3)n2)cc1 [Compound 1031, 4-14-{[4-1-(4-17-aminophenyl)-6-5-(morpholin-4-yl)-1,3,5-triazin-2-yl]oxy}-N,N-dimethylbenzamide]
< 5 µM	CN(C)C(=O)c1ccc(Oc2nc(-c3cccc4[nH]ccc34)nc(N3CCOCC3)n2)cc1 [Compound 1064, 4-14-{[4-1-(1H-indol-4-yl)-6-5-(morpholin-4-yl)-1,3,5-triazin-2-yl]oxy}-N,N-dimethylbenzamide]
> 5 µM	CN(C)C(=O)CNc1nc(-c2cccc(C(F)F)c2)nc(N2CCOCC2)n1 [Compound 1137, 2-((4-(3-(difluoromethyl)phenyl)-6-morpholino-1,3,5-triazin-2-yl)amino)-N,N-dimethylacetamide]
> 5 µM	CS(=O)(=O)Nc1cccc(-c2nc(NCC(=O)O)nc(N3CCOCC3)n2)c1 [Compound 1146, 2-((4-(3-(methylsulfonamido)phenyl)-6-morpholino-1,3,5-triazin-2-yl)amino)acetic acid]
< 5 µM	ON=C1CCN(c2nc(-c3cccc4[nH]ncc34)nc(N3CCOCC3)n2)CC1 [Compound 1208, N-{1-8-[4-1-(1H-indazol-4-yl)-6-5-(morpholin-4-yl)-1,3,5-triazin-2-yl]piperidin-4-ylidene}hydroxylamine]
< 5 µM	CS(=O)(=O)N1CCC(COc2nc(-c3ccc(N)nc3)nc(N3CCOCC3)n2)CC1 [Compound 1023, 5-(4-((1-(methylsulfonyl)piperidin-4-yl)methoxy)-6-morpholino-1,3,5-triazin-2-yl)pyridin-2-amine]
> 5 µM	CS(=O)(=O)N1CCN(C(=O)CNc2nc(-c3ccc(N)cc3)nc(N3CCOCC3)n2)CC1 [Compound 1120, 2-((4-(4-aminophenyl)-6-morpholino-1,3,5-triazin-2-yl)amino)-1-(4-(methylsulfonyl)piperazin-1-yl)ethanone]
< 5 µM	CC(C)(Nc1nc(-c2cccc3[nH]ncc23)nc(N2CCOCC2)n1)C(=O)O [Compound 1235, 2-((4-(1H-indazol-4-yl)-6-morpholino-1,3,5-triazin-2-yl)amino)-2-methylpropanoic acid]
> 5 µM	NC(=O)c1ccccc1Nc1nc(-c2cccc3[nH]ncc23)nc(N2CCOCC2)n1 [Compound 1198, 2-((4-(1H-indazol-4-yl)-6-morpholino-1,3,5-triazin-2-yl)amino)benzamide]
> 5 µM	CN(C)C(=O)c1ccc(Oc2nc(-c3cccc4[nH]ncc34)nc(N3CCNC(=O)CC3)n2)cc1 [Compound 1038, 4-7-{[4-5-(1H-indazol-4-yl)-6-3-(5-31-oxo-1,4-diazepan-1-yl)-1,3,5-triazin-2-yl]oxy}-N,N-dimethylbenzamide]
> 5 µM	COc1cccc(-c2nc(NCC(=O)O)nc(N3CCOCC3)n2)c1 [Compound 1183, 2-((4-(3-methoxyphenyl)-6-morpholino-1,3,5-triazin-2-yl)amino)acetic acid]
< 5 µM	CN(C)C(=O)c1ccc(Oc2nc(-c3cnc(N)s3)nc(N3CCCOCC3)n2)cc1 [Compound 1002, 4-9-{[4-1-(2-17-amino-1,3-thiazol-5-yl)-6-5-(1,4-oxazepan-4-yl)-1,3,5-triazin-2-yl]oxy}-N,N-dimethylbenzamide]
< 5 µM	CN(c1cccc(C(N)=O)c1)c1nc(-c2cccc3[nH]ncc23)nc(N2CCOCC2)n1 [Compound 1200, 3-((4-(1H-indazol-4-yl)-6-morpholino-1,3,5-triazin-2-yl)(methyl)amino)benzamide]
> 5 µM	COC1CN(c2nc(Oc3ccc(C(=O)N(C)C)cc3)nc(-c3cccc4[nH]ncc34)n2)C1 [Compound 1075, 4-9-{[4-1-(1H-indazol-4-yl)-6-5-(3-29-methoxyazetidin-1-yl)-1,3,5-triazin-2-yl]oxy}-N,N-dimethylbenzamide]

Reference: patent US9481670B2, “Triazine compounds” (Sphaera Pharma PTE. Ltd., priority 2011, dated 2016)
